Consider 15 compounds from ChEMBL document CHEMBL5352508, “Discovery and Structure-Based Design of Inhibitors of the WD Repeat-Containing Protein 5 (WDR5)-MYC Interaction” (J Med Chem, 2023).

Data set [1] has as its target T1, WDR5-MYC (Homo sapiens, UniProt P61964). The data set can be described thus: Inhibition of N-terminal his-tagged WDR5 (1 to 334 residues) (unknown origin)/Biotin tagged Myc (256-268 residues) (unknown origin) interaction measured after 1 hrs by HTRF assay. The data set is classed as protein assay. (In TR-FRET formats the signal depends on donor and acceptor labels being close together.)

A further data set has as its system COR-L279. In words: Antiproliferative activity against human COR-L279 cells assessed as cell growth inhibition measured after 72 hrs by CellTier-Glo assay. The data set is classed as functional.
For a further data set, the system named is Daudi. The data set can be described thus: Antiproliferative activity against human Daudi cells assessed as cell growth inhibition measured after 72 hrs by CellTier-Glo assay. The data set is classed as functional.
The next data set deals with Ramos. The data set can be described thus: Antiproliferative activity against human Ramos cells assessed as cell growth inhibition measured after 72 hrs by CellTier-Glo assay. It is filed as functional.
In the next data set the test system is NB-4. In words: Antiproliferative activity against human NB4 cells assessed as cell growth inhibition measured after 72 hrs by CellTier-Glo assay. The data set is classed as functional.
Data set [2] deals with HL-60. The data set can be described thus: Antiproliferative activity against human HL-60 cells assessed as cell growth inhibition measured after 72 hrs by CellTier-Glo assay. The data set is classed as functional.
A short description of data set [3]: Microsomal stability in mouse liver microsome assessed as intrinsic clearance. The data set is classed as ADME. Conditions: liver microsomes, read-out: CLH.
Data set [4] relates to HL-60. In words: Downregulation of RPL17 gene expression in human HL-60 cells measured after 24 hrs by RT-qPCR assay. The data set is classed as functional, cell-based. Conditions: dose 3-10 µM. In general terms: In qPCR the cycle at which signal appears reflects the starting amount.
Data set [5] is described as follows: Apparent permeability of the compound in dog MDCKII-LE cells measured upto 1.5 hrs. The conditions noted are these: MDCK. It is filed as ADME, cell-based, Canis lupus familiaris.
The target of data set [6] is T1, WDR5-MYC. In words: Inhibition of WDR5 (unknown origin)/MYC (unknown origin) interaction. The data set is classed as protein assay.
In data set [7] the target is T2, WD repeat-containing protein 5 (Homo sapiens, UniProt P61964). The data set can be described thus: Inhibition of N-terminal his-tagged WDR5 (1 to 334 residues) (unknown origin) measured after 10 mins by HTRF assay.
Data set [8] addresses T2, WD repeat-containing protein 5. The data set can be described thus: Inhibition of N-terminal his-tagged WDR5 (1 to 334 residues) (unknown origin) measured after 30 mins by HTRF assay.
Data set [9] has the same target. In words: Inhibition of N-terminal his-tagged WDR5 (1 to 334 residues) (unknown origin) measured after 90 mins by HTRF assay.
Data set [10] shares this target. The data set can be described thus: Inhibition of N-terminal his-tagged WDR5 (1 to 334 residues) (unknown origin) measured after 180 mins by HTRF assay.
The target is the same in data set [11]. In words: Inhibition of N-terminal his-tagged WDR5 (1 to 334 residues) (unknown origin) measured after 360 mins by HTRF assay.
Data set [12] shares this target. The data set can be described thus: Inhibition of N-terminal his-tagged WDR5 (1 to 334 residues) (unknown origin) measured after 10 mins by HTRF assay relative to control.
For data set [13] the target is unchanged. In words: Inhibition of N-terminal his-tagged WDR5 (1 to 334 residues) (unknown origin) measured after 30 mins by HTRF assay relative to control.
The target is the same in data set [14]. In words: Inhibition of N-terminal his-tagged WDR5 (1 to 334 residues) (unknown origin) measured after 90 mins by HTRF assay relative to control.
The target is the same in data set [15]. In words: Inhibition of N-terminal his-tagged WDR5 (1 to 334 residues) (unknown origin) measured after 180 mins by HTRF assay relative to control.
Data set [16] has the same target. In words: Inhibition of N-terminal his-tagged WDR5 (1 to 334 residues) (unknown origin) measured after 360 mins by HTRF assay relative to control.
A further data set has as its target WDR5-MYC (Homo sapiens) (UniProt P61964+P01106). The data set can be described thus: Inhibition of flag-tagged WDR5/endogenous MYC interaction in HEK293T cells overexpressing flag tagged WDR5 incubated for 6 hrs by coimmunoprecipitation assay. The data set is classed as cell-based. The conditions noted are these: dose 5-30 µM.
A further data set has as its system HEK293T. The data set can be described thus: Inhibition of RBBP5/flag-tagged WDR5 interaction in HEK293T cells overexpressing flag-tagged WDR5 upto 30 uM incubated for 6 hrs by coimmunoprecipitation assay. It is filed as cell-based. Conditions: Homo sapiens.
The target in data set [17] is T3, Histone-lysine N-methyltransferase 2A/WDR5 (Homo sapiens) (UniProt P61964+Q03164). The data set can be described thus: Inhibition of MLL/flag-tagged WDR5 interaction in HEK293T cells overexpressing flag-tagged WDR5 upto 30 uM incubated for 6 hrs by coimmunoprecipitation assay. The data set is classed as cell-based.
For data set [18], the target named is T1, WDR5-MYC. In words: Inhibition of his-tagged WDR5/flag-tagged MYC interaction overexpressed in HEK293T cells incubated for 5 hrs. It is filed as cell-based.
For data set [19], the target named is T3, Histone-lysine N-methyltransferase 2A/WDR5 (Homo sapiens). The data set can be described thus: Inhibition of WDR5 (unknown origin)/MLL (unknown origin) interaction by NanoBiT assay. The data set is classed as protein assay.
Data set [20] has as its system HL-60. In words: Downregulation of RPL23 gene expression in human HL-60 cells measured after 24 hrs by RT-qPCR assay. The conditions noted are these: dose 3-10 µM. The data set is classed as functional, cell-based.
Data set [21] deals with HL-60. The data set can be described thus: Downregulation of RPL35 gene expression in human HL-60 cells measured after 24 hrs by RT-qPCR assay. The data set is classed as functional, cell-based. Conditions: dose 3-10 µM.
Data set [22] relates to HL-60. The data set can be described thus: Downregulation of RPL37A gene expression in human HL-60 cells measured after 24 hrs by RT-qPCR assay. The conditions noted are these: dose 3-10 µM. It is filed as functional, cell-based.
In another data set the test system is SHP77. In words: Antiproliferative activity against human SHP77 cells assessed as cell growth inhibition measured after 72 hrs by CellTier-Glo assay. It is filed as functional.
A further data set concerns NCI-H520. The data set can be described thus: Antiproliferative activity against human NCI-H520 cells assessed as cell growth inhibition measured after 72 hrs by CellTier-Glo assay. The data set is classed as functional.
The next data set relates to NCI-H1650. The data set can be described thus: Antiproliferative activity against human NCI-H1650 cells assessed as cell growth inhibition measured after 72 hrs by CellTier-Glo assay. It is filed as functional.
Data set [23] deals with HL-60. In words: Effect on MCM4 mRNA expression in human HL-60 cells measured after 24 hrs by RT-qPCR assay. It is filed as functional, cell-based.
For data set [24], the system named is HL-60. In words: Effect on MCM10 mRNA expression in human HL-60 cells measured after 24 hrs by RT-qPCR assay. It is filed as functional, cell-based.
Data set [25] concerns HL-60. In words: Effect on Cdc20 mRNA expression in human HL-60 cells measured after 24 hrs by RT-qPCR assay. The data set is classed as functional, cell-based.
The subject of data set [26] is HL-60. The data set can be described thus: Effect on AURKB mRNA expression in human HL-60 cells measured after 24 hrs by RT-qPCR assay. The data set is classed as functional, cell-based.

Calls of active or inactive are those of the source. No cut-off for these calls is given here.

Regarding `Cc1cc(=O)c(C(=O)NCc2c(F)cc(N3CC[C@@H](F)C3)cc2F)nn1-c1ccccc1`, half-maximal inhibition at WDR5-MYC [1] (IC50) required 0.78 µM.

Consider `Cc1cc(=O)c(C(=O)NCc2c(F)cc(N3CC[C@H](F)C3)cc2F)nn1-c1cccc(C(N)=O)c1`, for which, at WDR5-MYC [1], the IC50 (in general, the concentration that inhibits the measured activity by half) worked out at 0.95 µM.

At WDR5-MYC [1], `Cc1cc(=O)c(C(=O)NCc2c(F)cc(C3CCCOC3)cc2F)nn1-c1ccccc1` (centres undefined) displayed an IC50 of 3.83 µM.

Compound `Cc1cc(=O)c(C(=O)NCc2c(F)cc(N3CCCC(C)(C)C3)cc2F)nn1-c1ccccc1` came in with an IC50 against WDR5-MYC [1] of 2.46 µM.

Consider `Cc1cc(=O)c(C(=O)NCc2c(F)cc(-c3cccc(S(=O)(=O)O)c3)cc2F)nn1-c1ccccc1`, for which inhibition against WDR5-MYC [1] was half-maximal at 0.91 µM (IC50). This IC50 lies about 2.7-fold lower than the previous one.

The compound `Cc1cc(=O)c(C(=O)NCc2c(F)cc(N3CC[C@@H](O)C3)cc2F)nn1-c1ccccc1` returned an IC50 at WDR5-MYC [1] of 3.72 µM. Against the preceding compound, the IC50 is about 4.1-fold higher.

As for `Cc1cc(=O)c(O)c(C(=O)NCc2ccc(-c3ccccc3C#N)cc2)o1`, inhibition against WDR5-MYC [1] was half-maximal at 13.9 µM (IC50). This IC50 is about 3.7-fold higher than that of the compound before.

For the compound `Cc1cc(=O)c(C(=O)NCc2c(F)cc(-c3cccc(S(=O)(=O)F)c3)cc2F)nn1-c1ccccc1`, the GI50 (in general, the concentration at which growth is held to half of that of the control) in the data set with COR-L279 amounted to 4.2 µM; in the data set with Daudi, 15.4 µM; with Ramos it was 4.3 µM; with NB-4 it was 7.1 µM; in the data set with HL-60 [2] it was 4.6 µM; in the data set on SHP77, 16.6 µM. Also, the GI50 in the data set on NCI-H520 amounted to 9.4 µM; in the data set with NCI-H1650 it was 22.6 µM. Further, the microsomal CLint in data set [3] is 46.9 µL/min/mg. Also, the Activity entry in the data set on HL-60 [4], in the data set with HL-60 [20], with HL-60 [21] and in the data set on HL-60 [22] was “Dose-Dependent Effect” in each case. For the same compound, the Papp (as a rule, the rate of passage across a membrane or cell layer, normalised by area and donor concentration) at 1.5 h in data set [5] amounted to 1.77 ×10⁻⁶ cm/s. In addition, the IC50 turned out to be 5.8 µM at WDR5-MYC [6]; 0.39 µM against WDR5-MYC [1]; 2.09 µM in data set [7]; 0.79 µM in data set [8]; 0.3 µM in [9]; 0.17 µM in [10]. For the same compound, the IC50 in data set [11] was 0.1 µM; against WDR5-MYC [18] it was 4.8 µM. In addition, the inhibition (usually the change of the read-out against control, counted positive when it falls) in [12] was 59.3%; in data set [13], 64%; in data set [14] it was 78.5%; in data set [15], 88.5%; in data set [16], 91.9%; on WDR5-MYC (Homo sapiens), “Dose-Dependent Effect”. Further, the inhibition result (in the data set on HEK293T; in data set [17]; in [19]) was “inactive” in each case. The outcome with HL-60 [23], in the data set on HL-60 [24], in the data set with HL-60 [25] and with HL-60 [26] was inactive.

Compound `Cc1cc(=O)c(C(=O)NCc2c(F)cc(-c3cccc(S(=O)(=O)F)c3)cc2F)nn1-c1cccc(C(=O)O)c1` had an IC50 at WDR5-MYC [1] of 0.19 µM.

Take `Cc1cc(=O)c(C(=O)NCc2c(F)cc(-c3cncnc3)cc2F)nn1-c1ccccc1`: the IC50 against WDR5-MYC [1] was 13.8 µM.

On WDR5-MYC [1], `CC(=O)c1cccc(-c2cc(F)c(CNC(=O)c3nn(-c4ccccc4)c(C)cc3=O)c(F)c2)c1` gave an IC50 of 8.13 µM.

Regarding `Cc1cc(=O)c(C(=O)NCc2c(F)cc(N3CC[C@H](O)C3)cc2F)nn1-c1ccccc1`, on WDR5-MYC [1], the midpoint of inhibition, the IC50, lay at 5.67 µM. This IC50 and that of the compound before are within 1.5-fold of each other.

For `Cc1cc(=O)c(C(=O)NCc2c(F)cc(N3CC[C@H](F)C3)cc2F)nn1-c1cccc(C(=O)O)c1`, the IC50 on WDR5-MYC [1] came to 0.64 µM.

Regarding `Cc1cc(=O)c(C(=O)NCc2c(F)cc(-c3cccc(C(C)O)c3)cc2F)nn1-c1ccccc1` (centres undefined), half-maximal inhibition against WDR5-MYC [1] (IC50) required 5.51 µM. This IC50 is about 8.6-fold higher than that of the compound before.

In turn, `Cc1cc(=O)c(C(=O)NCc2c(F)cc(-c3ccccc3)cc2F)nn1-c1ccccc1` returned an IC50 against WDR5-MYC [1] of 15.8 µM.
